Assay results reported in ChEMBL document CHEMBL1201862, “PubChem BioAssay data set” (2004).
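Assay format: 96-well plates, 48-hour exposure. GI50 marks 50% less growth.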 The source made the active and inactive calls. Cut-off read from the data, not from the text of the source: active = GI50 up to about 1.1 µM and inactive = higher.

Legend:
Assay in all cases: NCI tumour cell line growth inhibition, 48 h
OVCAR-4 = tested on: OVCAR-4
T47D = tested on: T47D
RPMI-8226 = tested on: RPMI-8226
SK-MEL-2 = tested on: SK-MEL-2
SK-MEL-5 = tested on: SK-MEL-5
DU-145 = tested on: DU-145
UACC-62 = tested on: UACC-62
IGROV-1 = tested on: IGROV-1
MDA-N = tested on: MDA-N
CCRF-CEM = tested on: CCRF-CEM
HOP-62 = tested on: HOP-62
OVCAR-3 = tested on: OVCAR-3
RXF 393 = tested on: RXF 393
KM12 = tested on: KM12
ACHN = tested on: ACHN
SW-620 = tested on: SW-620
NCI-H460 = tested on: NCI-H460
Hs-578T = tested on: Hs-578T
LOX IMVI = tested on: LOX IMVI
786-0 = tested on: 786-0
SK-MEL-28 = tested on: SK-MEL-28
M14 = tested on: M14
HCT-116 = tested on: HCT-116
PC-3 = tested on: PC-3
HCT-15 = tested on: HCT-15
A549 = tested on: A549
EKVX = tested on: EKVX
COLO 205 = tested on: COLO 205
SK-OV-3 = tested on: SK-OV-3
SF-268 = tested on: SF-268
SN12C = tested on: SN12C
HT-29 = tested on: HT-29
OVCAR-5 = tested on: OVCAR-5
TK-10 = tested on: TK-10
NCI-H23 = tested on: NCI-H23
HL-60 = tested on: HL-60
MDA-MB-435 = tested on: MDA-MB-435
NCI-H226 = tested on: NCI-H226
SNB-19 = tested on: SNB-19
U-251 = tested on: U-251
SF-295 = tested on: SF-295
UACC-257 = tested on: UACC-257
K562 = tested on: K562
HCC 2998 = tested on: HCC 2998
SF-539 = tested on: SF-539
CAKI-1 = tested on: CAKI-1
MOLT-4 = tested on: MOLT-4
NCI-H522 = tested on: NCI-H522
MCF7 = tested on: MCF7
MDA-MB-231 = tested on: MDA-MB-231
SR = tested on: SR
HOP-92 = tested on: HOP-92
UO-31 = tested on: UO-31
BT-549 = tested on: BT-549
Malme-3M = tested on: Malme-3M

CSC(SC)=C1C(=O)NN=C1C
GI50 (OVCAR-4): > 100 µM (inactive)
GI50 (T47D): > 100 µM (inactive)
GI50 (RPMI-8226): > 100 µM (inactive)
GI50 (SK-MEL-2): > 100 µM (inactive)
GI50 (SK-MEL-5): > 100 µM (inactive)
GI50 (DU-145): > 100 µM (inactive)
GI50 (UACC-62): > 100 µM (inactive)
GI50 (IGROV-1): > 100 µM (inactive)
GI50 (MDA-N): > 100 µM (inactive)
GI50 (CCRF-CEM): > 100 µM (inactive)
GI50 (HOP-62): > 100 µM (inactive)
GI50 (OVCAR-3): > 100 µM (inactive)
GI50 (RXF 393): > 100 µM (inactive)
GI50 (KM12): > 100 µM (inactive)
GI50 (ACHN): > 100 µM (inactive)
GI50 (SW-620): > 100 µM (inactive)
GI50 (NCI-H460): > 100 µM (inactive)
GI50 (Hs-578T): > 100 µM (inactive)
GI50 (LOX IMVI): > 100 µM (inactive)
GI50 (786-0): > 100 µM (inactive)
GI50 (SK-MEL-28): > 100 µM (inactive)
GI50 (M14): > 100 µM (inactive)
GI50 (HCT-116): > 100 µM (inactive)
GI50 (PC-3): > 100 µM (inactive)
GI50 (HCT-15): > 100 µM
GI50 (A549): > 100 µM (inactive)
GI50 (EKVX): > 100 µM (inactive)
GI50 (COLO 205): > 100 µM (inactive)
GI50 (SK-OV-3): > 100 µM (inactive)
GI50 (SF-268): > 100 µM (inactive)
GI50 (SN12C): > 100 µM (inactive)
GI50 (HT-29): > 100 µM (inactive)
GI50 (OVCAR-5): > 100 µM (inactive)
GI50 (TK-10): > 100 µM (inactive)
GI50 (NCI-H23): > 100 µM (inactive)
GI50 (HL-60): > 100 µM (inactive)
GI50 (MDA-MB-435): > 100 µM (inactive)
GI50 (NCI-H226): > 100 µM (inactive)
GI50 (SNB-19): > 100 µM (inactive)
GI50 (U-251): > 100 µM (inactive)
GI50 (SF-295): > 100 µM (inactive)
GI50 (UACC-257): > 100 µM (inactive)
GI50 (K562): > 100 µM (inactive)
GI50 (HCC 2998): > 100 µM (inactive)
GI50 (SF-539): > 100 µM (inactive)
GI50 (CAKI-1): 89.3 µM (inactive)
GI50 (MOLT-4): > 100 µM (inactive)
GI50 (NCI-H522): 47 µM (inactive)
GI50 (MCF7): > 100 µM (inactive)
GI50 (MDA-MB-231): > 100 µM (inactive)
GI50 (SR): > 100 µM (inactive)
GI50 (HOP-92): 35.1 µM (inactive)
GI50 (UO-31): > 100 µM (inactive)
GI50 (BT-549): > 100 µM (inactive)
GI50 (Malme-3M): > 100 µM (inactive)
